According to patent US20240374570A1, “DRIVING AXON REGENERATION BY NRF2 OVEREXPRESSION AND EDARAVONE APPLICATION” (The Hong Kong University of Science and Technology, priority 2023, published 2024):

System: dorsal root ganglion (DRG) neurons
Experiment: DRG neurons replating culture, axon growth
Assay type: cell-based, mice
Conditions: one day treatment, then replated 20 hours under continued treatment, vs DMSO vehicle
Method: FIGS. 3A-3B Edaravone promotes axon elongation in DRG replating culture. (FIG. 3A) Representative image of replated DRG neurons treated by the DMSO vehicle control and indicated concentration of edaravone. Scale bar: 400 μm. (FIG. 3B) Quantification of the longest neuron length of the tested concentrations of edaravone. Dots represent the measurement of each neuron.
Primary culture and replating culture of DRG neurons were performed as following protocols. L3-L5 dorsal root ganglia (DRGs) were dissected from adult WT mice and digested in 0.5% collagenase for 90 minutes. Subsequently, the digestion medium was replaced with culture medium (Neurobasal-A supplemented with penicillin-streptomycin and B-27). The digested DRGs were then triturated with a pipette 20-30 times to isolate DRG neurons. The isolated DRG neurons were plated onto a 6-well plate pre-coated with Poly-D-Lysine and laminin. Primary cultured DRG neurons received 1 μM edaravone, 10 μM edaravone or DMSO vehicle treatment for one day. After then, neurons were resuspended and replated to another dish under continue treatment of vehicle/edaravone. The replating culture was terminated with 4% PFA after 20 hours. Tuj1 staining was performed to visualize DRG cell bodies and neurites.
Adult mice dorsal root ganglion (DRG) neurons replating culture was used to investigate the effect of edaravone on axon growth. […]

SMILES: CC1=NN(c2ccccc2)C(=O)C1 [edaravone, 5-methyl-2-phenyl-2,4-dihydro-3H-pyrazol-3-one]
- axon (neurite) growth, longest neuron length (1 μM): significant growth-promoting effect
- axon (neurite) growth, longest neuron length (10 μM): significant growth-promoting effect
